In patent US12240860B2, “Heterobicyclic carboxylic acids and salts thereof” (SHENZHEN IONOVA LIFE SCIENCE CO., LTD., priority 2018, dated 2025):

Assay: DVS (Dynamic Vapor Sorption) moisture sorption/desorption
Format: physicochemical
Details: 25° C.
Method: DVS (Dynamic Vapor Sorption)
Around 20 mg of samples were used to test its moisture sorption/desorption profiles at 25° C. under 0%˜95%˜0% relative humidity (RH) cycle with the following parameters:
Equilibrium: dm/dt: 0.01%/min.
RH (%) measurement step scope: 0%95%0%; RH (%) measurement step: 5%

Cc1sc2ccn(Cc3ccc(C(F)(F)F)cc3)c2c1C(=O)NC1(c2ccc(C(=O)O)cc2)CC1 [C003 free acid, 4-(1-{[2-Methyl-4-(4-trifluoromethyl-benzyl)-4H-thieno[3,2-b]pyrrole-3-carbonyl]-amino}-cyclopropyl)-benzoic acid]
moisture at 80% RH (DVS): 3.175% | Hygroscopicity Classification (DVS) (80% RH): hygroscopic
